Reference: patent US20110124574A1, “RESTORATION OF ESTROGEN RECEPTOR-(ALPHA) ACTIVITY” (priority 2008, published 2011)
Where no end group is shown, it is not given here. The star is where a group is joined. For = O=C*

Experiments:
Assay type in all cases: cell-based, human
cleaved caspase 3 = assay: Cleaved caspase 3 Western blot after tamoxifen; details: MDA-MB-231, stimulation plus tamoxifen, compared with cells treated only with tamoxifen
Method: (§1) MDA-MB-231 cells were grown in 6 well plates and stimulated with recombinant Wnt-5a protein (rW5a) or the Wnt-5a derived Foxy-5 peptide (F5), for 24 or 48 h. Cells were treated with tamoxifen for the final 20 h and their apoptotic responses were measured via different methods. […] Arrows highlight apoptotic cells. Bars represent […]. B: Following treatment with rW5a, F5 and tamoxifen, or tamoxifen alone, cells were lysed and subjected to SDS-PAGE, transferred to nitrocellulose membranes and blotted for cleaved caspase 3. C: Treated cells were assessed for their relative caspase 3 activity using fluorometric spectrophotometry. The graph represents 6 separate experiments. * P<0.01, ** P<0.001. D: MTT assays were also performed on MDA-MB-231 cells treated with rWnt-5a, F5 and tamoxifen, or tamoxifen alone (MDA-MB-231 and MCF-7 cells) to assess cell growth inhibition. The graph represents the average of 6 separate experiments, with standard deviation represented by error bars. ** P<0.01, *** P<0.001.
(§2) Cells were lysed in Triton lysis buffer (50 mM Tris (pH7.5), 1% Triton x-100, 140 mM NaCl, 0.5 mM EDTA, 0.5 MgCl2, 10 mM NaF) with the addition of fresh leupeptin (1 μg/ml), Pefabloc (2 mM), aprotinin (20 μg/ml) and Na3VO4 (4 mM). […] Scanning and densitometry was performed using a Bio-Rad (Hercules Calif.) GS-800 densitometer with Quantity One software. […]

Caspase 3 = Caspase 3 activity assay (fluorometric, DEVD-amc); details: MDA-MB-231, stimulation plus tamoxifen 1 μM 20 hours; compared to untreated cells or tamoxifen alone
Method: as §1
Caspase 3 activity was determined via fluorescent spectrometry. The fluorogenic peptide DEVD-amc (Upstate Biotech) was used as a substrate. […] Reactions were incubated at 37° C. for 1 h and analysed on a FLUOstar plate reader (BMG Lab technologies). The total protein content of each lysates was measured using the Coomassie Plus Protein Assay and read outs averaged and adjusted accordingly. […]

ERα = ERα protein expression by Western blot in stimulated MDA-MB-468 cells; details: stimulation for 24 and 48 hours
Method: Breast cancer cells were grown in 6 well plates, and stimulated with recombinant Wnt-5a protein (rW5a), the Wnt-5a derived Foxy-5 peptide (F5), recombinant Wnt-3a protein (rW3a), or a formylated random hexapeptide (Rdm) for 24 or 48 h. Following treatment cells were lysed and subjected to SDS-PAGE, transferred to nitrocellulose membranes and blotted for ERα expression. A: MDA-MB-231 cells stimulated with recombinant Wnt-5a, Foxy-5, Wnt-3a, Rdm. B: MDA-MB-468 cells stimulated with recombinant Wnt-5a or Foxy-5. C: 4T1 cells stimulated with recombinant Wnt-5a or Foxy-5. Positive controls (Pos) were included in order to confirm the correct band size for ERα. Two different positive controls were used: T47D cell lysates known to express ERα and MDA-MB-231 cells transiently transfected with a full length ERα plasmid, resulting in extremely high ERα expression (top row, right panel, third row, right panel). […]
as §2

Molecule | levels of cleaved caspase-3 (cleaved caspase 3) | increase of degree of apoptosis (caspase-3 activity) (Caspase 3) | ERα levels (ERα)
formyl-MDGCEL (For-MDGCEL; listed as Homo sapiens) [Foxy-5] | higher levels | three | upregulated
recombinant Wnt-5a: recombinant Wnt-5a protein (R&D Systems) (protein, UniProt P41221 62-380, looked up) Protein Wnt-5a: IIGAQPLCSQLAGLSQGQKKLCHLYQDHMQYIGEGAKTGIKECQYQFRHRRWNCSTVDNTSVFGRVMQIGSRETAFTYAVSAAGVVNAMSRACREGELSTCGCSRAARPKDLPRDWLWGGCGDNIDYGYRFAKEFVDARERERIHAKGSYESARILMNLHNNEAGRRTVYNLADVACKCHGVSGSCSLKTCWLQLADFRKVGDALKEKYDSAAAMRLNSRGKLVQVNSRFNSPTTQDLVYIDPSPDYCVRNESTGSLGTQGRLCNKTSEGMDGCELMCCGRGYDQFKTVQTERCHCKFHWCCYVKCKKCTEIVDQFVCK | higher levels | two | upregulated
